The supplement of paper PMC8617591

Legend:
[1] = system: Mycobacterium tuberculosis Erdman (autoluminescent); assay: AUC25, normalised area under dose response up to IC25 (fraction (0-1)); higher = more potent at low dose
Procedure: (§1)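 DiaMOND dose responses (10 doses, 1.5- or 2-fold spacing, equipotent around IC90) of autoluminescent M. tuberculosis Erdman in 8 in vitro models. Read-out is OD600, or luminescence for the intracellular (J774) and dormancy models, background-subtracted and normalised to untreated wells. A 3-parameter Hill fit gives Einf and AUC25 (area to IC25 normalised by IC25); GRinf comes from a Hill fit of the Hafner normalised growth rate. Biological replicates passing QC are averaged. Single drugs only.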

[2] = system: Mycobacterium tuberculosis Erdman (autoluminescent); assay: Einf, fitted maximum growth inhibition (fraction); higher = stronger maximal inhibition
Procedure: as §1

[3] = system: Mycobacterium tuberculosis Erdman (autoluminescent); assay: GRinf, maximum normalised growth rate inhibition (unitless (-1 to 1)); higher = less effect (negative = killing)
Procedure: as §1

[4] = system: Mycobacterium tuberculosis Erdman (autoluminescent); assay: FIC50 (Loewe) at 50% inhibition (log2); higher = more antagonistic
Procedure: (§2)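 DiaMOND equipotent two-drug combination dose responses against autoluminescent M. tuberculosis Erdman in 8 in vitro models. Read-out is OD600, or luminescence for the intracellular and dormancy models, normalised to untreated wells. Hill-fit Einf, AUC25 and GRinf are potency metrics; FIC50 and FIC90 are Loewe-additivity fractional inhibitory concentrations, given as log2 (negative = synergy). Replicates are averaged.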

[5] = system: Mycobacterium tuberculosis Erdman (autoluminescent); assay: FIC90 (Loewe) at 90% inhibition (log2); higher = more antagonistic
Procedure: as §2

[6] = system: Mycobacterium tuberculosis Erdman (autoluminescent); assay: Einf, fitted maximum growth inhibition of combination (fraction); higher = stronger maximal inhibition
Procedure: as §2

[7] = system: Mycobacterium tuberculosis Erdman (autoluminescent); assay: GRinf, maximum normalised growth rate inhibition (unitless (-1 to 1)); higher = less effect (negative = killing); remark: listed apart in the source
Procedure: as §2

[8] = system: Mycobacterium tuberculosis Erdman (autoluminescent); assay: AUC25, normalised area under dose response up to IC25 (fraction (0-1)); higher = more potent at low dose; remark: listed apart in the source
Procedure: as §2

CC(=O)NC[C@H]1CN(c2ccc(N3CCOCC3)c(F)c2)C(=O)O1 [linezolid]
Conditions	AUC25, [1]	Einf, [2]	GRinf, [3]
in vitro model: acidic pH 5.7, time point: constant (~7 days, model-specific)	0.105	0.813	-0.255
in vitro model: acidic pH 5.7, time point: terminal (~4-5 doublings, model-specific)	0.086	0.966	-0.214
in vitro model: intracellular J774, time point: constant = terminal	–	0.947	-0.297

Conditions	AUC25, [1]	Einf, [2]	GRinf, [3]
in vitro model: butyrate, time point: constant (~7 days, model-specific)	0.0921	0.894	0.0641
in vitro model: butyrate, time point: terminal (~4-5 doublings, model-specific)	0.0673	0.941	0.0625
in vitro model: cholesterol 0.05 mM, time point: constant (~7 days, model-specific)	0.152	0.692	-0.0397
in vitro model: cholesterol 0.05 mM, time point: terminal (~4-5 doublings, model-specific)	0.152	0.927	-0.195
in vitro model: cholesterol-high 0.2 mM, time point: constant (~7 days, model-specific)	0.119	0.967	-0.633
in vitro model: cholesterol-high 0.2 mM, time point: terminal (~4-5 doublings, model-specific)	0.117	1	-0.803
in vitro model: dormancy (butyrate + nitrate, low O2), time point: constant (~7 days, model-specific)	0.0427	0.907	0.164
in vitro model: dormancy (butyrate + nitrate, low O2), time point: terminal (~4-5 doublings, model-specific)	0.0425	0.989	-0.0469
in vitro model: standard 7H9 glycerol, time point: constant = terminal	0.0679	0.904	0.0704
in vitro model: valerate, time point: constant (~7 days, model-specific)	0.106	0.912	-0.0706
in vitro model: valerate, time point: terminal (~4-5 doublings, model-specific)	0.0701	0.948	-0.0311

COc1c(N2C[C@@H]3CCCN[C@@H]3C2)c(F)cc2c(=O)c(C(=O)O)cn(C3CC3)c12 [moxifloxacin]
Conditions	AUC25, [1]	Einf, [2]	GRinf, [3]
in vitro model: acidic pH 5.7, time point: constant (~7 days, model-specific)	0.122	0.749	-0.192
in vitro model: acidic pH 5.7, time point: terminal (~4-5 doublings, model-specific)	0.0782	0.96	-0.226
in vitro model: intracellular J774, time point: constant = terminal	–	0.957	-0.212

Conditions	AUC25, [1]	Einf, [2]	GRinf, [3]
in vitro model: butyrate, time point: constant (~7 days, model-specific)	0.0832	0.908	0.0408
in vitro model: butyrate, time point: terminal (~4-5 doublings, model-specific)	0.0522	0.957	0.0197
in vitro model: cholesterol 0.05 mM, time point: constant (~7 days, model-specific)	0.116	0.629	-0.0568
in vitro model: cholesterol 0.05 mM, time point: terminal (~4-5 doublings, model-specific)	0.0909	0.881	-0.0841
in vitro model: cholesterol-high 0.2 mM, time point: constant (~7 days, model-specific)	0.0781	0.824	-0.195
in vitro model: cholesterol-high 0.2 mM, time point: terminal (~4-5 doublings, model-specific)	0.0751	1	-0.609
in vitro model: dormancy (butyrate + nitrate, low O2), time point: constant (~7 days, model-specific)	0.0904	0.927	0.0805
in vitro model: dormancy (butyrate + nitrate, low O2), time point: terminal (~4-5 doublings, model-specific)	0.0579	0.974	-0.132
in vitro model: standard 7H9 glycerol, time point: constant = terminal	0.0856	0.913	0.00369
in vitro model: valerate, time point: constant (~7 days, model-specific)	0.105	0.878	-0.00227
in vitro model: valerate, time point: terminal (~4-5 doublings, model-specific)	0.0529	0.936	0.0339

O=[N+]([O-])c1cn2c(n1)OC[C@@H](OCc1ccc(OC(F)(F)F)cc1)C2 [pretomanid]
Conditions	AUC25, [1]	Einf, [2]	GRinf, [3]
in vitro model: acidic pH 5.7, time point: constant (~7 days, model-specific)	0.109	0.891	-0.472
in vitro model: acidic pH 5.7, time point: terminal (~4-5 doublings, model-specific)	0.0605	0.983	-0.294
in vitro model: intracellular J774, time point: constant = terminal	–	1	-0.539

Conditions	AUC25, [1]	Einf, [2]	GRinf, [3]
in vitro model: butyrate, time point: constant (~7 days, model-specific)	0.0902	0.949	-0.111
in vitro model: butyrate, time point: terminal (~4-5 doublings, model-specific)	0.0573	0.98	-0.114
in vitro model: cholesterol 0.05 mM, time point: constant (~7 days, model-specific)	0.122	0.741	-0.205
in vitro model: cholesterol 0.05 mM, time point: terminal (~4-5 doublings, model-specific)	0.0841	0.927	-0.0295
in vitro model: cholesterol-high 0.2 mM, time point: constant (~7 days, model-specific)	0.0644	0.888	-0.269
in vitro model: cholesterol-high 0.2 mM, time point: terminal (~4-5 doublings, model-specific)	0.044	0.943	-0.393
in vitro model: dormancy (butyrate + nitrate, low O2), time point: constant (~7 days, model-specific)	0.0707	0.914	0.272
in vitro model: dormancy (butyrate + nitrate, low O2), time point: terminal (~4-5 doublings, model-specific)	0.0458	0.994	-0.0972
in vitro model: standard 7H9 glycerol, time point: constant = terminal	0.0636	0.939	-0.0451
in vitro model: valerate, time point: constant (~7 days, model-specific)	0.136	0.948	-0.0946
in vitro model: valerate, time point: terminal (~4-5 doublings, model-specific)	0.0896	0.96	-0.00421

O=[N+]([O-])c1cn2c(n1)OC[C@@H](OCc1ccc(OC(F)(F)F)cc1)C2 [pretomanid] + CO[C@H]1/C=C/O[C@@]2(C)Oc3c(C)c(O)c4c(O)c(c(/C=N/N5CCN(C)CC5)c(O)c4c3C2=O)NC(=O)/C(C)=C\C=C\[C@H](C)[C@H](O)[C@@H](C)[C@@H](O)[C@@H](C)[C@H](OC(C)=O)[C@@H]1C [rifampicin]
Conditions	AUC25, [8]	Einf, [6]	FIC50, [4]	FIC90, [5]	GRinf, [7]
in vitro model: acidic pH 5.7, time point: constant (~7 days, model-specific)	0.106	0.944	0.259	–	-0.224
in vitro model: acidic pH 5.7, time point: terminal (~4-5 doublings, model-specific)	0.0463	0.985	0.545	-0.025	-0.239
in vitro model: intracellular J774, time point: constant = terminal	–	0.966	–	-0.863	-0.281

Conditions	AUC25, [8]	Einf, [6]	FIC50, [4]	FIC90, [5]	GRinf, [7]
in vitro model: butyrate, time point: constant (~7 days, model-specific)	0.0943	0.915	0.189	-0.398	0.00239
in vitro model: butyrate, time point: terminal (~4-5 doublings, model-specific)	0.0817	0.966	-0.0797	-0.223	-0.0223
in vitro model: cholesterol 0.05 mM, time point: constant (~7 days, model-specific)	0.108	0.691	0.468	–	-0.0815
in vitro model: cholesterol 0.05 mM, time point: terminal (~4-5 doublings, model-specific)	0.0829	0.905	0.242	-0.715	-0.0976
in vitro model: cholesterol-high 0.2 mM, time point: constant (~7 days, model-specific)	0.0743	0.902	0.509	0.733	-0.211
in vitro model: cholesterol-high 0.2 mM, time point: terminal (~4-5 doublings, model-specific)	0.0653	1	0.521	0.306	-0.595
in vitro model: dormancy (butyrate + nitrate, low O2), time point: constant (~7 days, model-specific)	0.0843	0.942	0.23	-0.00861	0.0579
in vitro model: dormancy (butyrate + nitrate, low O2), time point: terminal (~4-5 doublings, model-specific)	0.0526	0.986	0.0748	0.236	-0.16
in vitro model: standard 7H9 glycerol, time point: constant = terminal	0.0517	0.912	-0.316	-1.42	0.0474
in vitro model: valerate, time point: constant (~7 days, model-specific)	0.104	0.877	0.152	–	0.0588
in vitro model: valerate, time point: terminal (~4-5 doublings, model-specific)	0.0482	0.943	0.504	-0.0514	0.0666
